Source: patent publication US20040082503A1, “Methods for treatment of diabetes using peptide analogues of insulin” (Neurocrine Biosciences, Inc., priority 1998, published 2004)

Key:
[1] = test system: Insulin specific NOD T cell clone PD6-4.3; experiment: Proliferation of insulin-specific NOD T cell clone PD6-4.3; assay type: cell-based, mouse (NOD); conditions: 50 μg/ml peptide, 72 h, 3H-thymidine; no antigen 163 cpm
Procedure: (§1) Insulin specific NOD T cell lines were established by culturing lymphocytes isolated from islet-infiltrating populations by in vitro stimulation with either porcine insulin at 25 μg/ml and irradiated NOD islet cell in the presence of irradiated NOD spleen cells as antigen presenting cells and cytokines. To obtain the infiltrating lymphocytes the following procedures were performed (see Wegmann et al., Eur. J. Immunol. 24:1853, 1994): the pancreas from the NOD mouse was digested with collagenase and individual islets were isolated manually. The infiltrating lymphocytes were then obtained by mild trypsin digestion of the islets. The insulin specific T cell lines or clones were propagated by serial stimulation in the presence of NOD spleen cells, porcine insulin and lymphokines. Clones were obtained by limiting dilution of the B chain (9-23) specific T cell lines in the presence of the antigen presenting cells and porcine insulin at 25 μg/ml. Wells with a growing population of cells following limiting dilution were expanded in appropriate medium, and after one cycle of growth were tested for reactivity to the B chain (9-23) peptide of insulin by evaluating the proliferative response.
(§2) Insulin B chain (9-23) (SEQ ID NO:2) specific mouse (NOD) T cell clones were isolated from infiltrated islets as described in Example 2. Peptide analogues with single alanine substitutions were prepared as described in Example 1. The effect of each analogue on T cell proliferation was then evaluated using an assay performed in 96-well flat bottom microtiter plates (see Daniel et al., Eur. J. Immunol. 25:1056, 1995). Briefly 25,000 T cell clones along with 1 million irradiated NOD spleen cells were cultured in the presence of 50 μg/ml of insulin B chain 9-23 peptide or any of the alanine substituted peptides listed below in triplicate sets. The plates were incubated for a total of 72 hours in 7% carbon dioxide atmosphere with a pulse of 1 μCi/well of tritiated thymidine for the last 6-8 hours of culture. Cells were harvested on a glass fiber filter and the associated radioactivity was counted in a liquid scintillation counter. Results are expressed as mean counts per minute of triplicate wells.

[2] = test system: Insulin specific NOD T cell clone PD12-4.4; experiment: Proliferation of insulin-specific NOD T cell clone PD12-4.4; assay type: cell-based, mouse (NOD); conditions: 50 μg/ml peptide, 72 h, 3H-thymidine; no antigen 350 cpm
Procedure: as §1, §2

[3] = test system: Insulin specific NOD T cell clone PD12-2.40; experiment: Proliferation of insulin-specific NOD T cell clone PD12-2.40; assay type: cell-based, mouse (NOD); conditions: 50 μg/ml peptide, 72 h, 3H-thymidine; no antigen 682 cpm
Procedure: as §1, §2
(§3) NOD T cell clones were incubated in the presence of 50 μM of either the native B chain (9-23) peptide or NBI-6024. The data in Table 3 represent the mean of triplicate sample±standard error of the mean. Within Table 3, S.I. (Stimulation Index)=proliferation (cpm) in the presence of the peptide/proliferation (cpm) in medium alone.

[4] = test system: Insulin specific NOD T cell clone PD12-4.34; experiment: Proliferation of insulin-specific NOD T cell clone PD12-4.34; assay type: cell-based, mouse (NOD); conditions: 50 μg/ml peptide, 72 h, 3H-thymidine; no antigen 231 cpm
Procedure: as §1, §2

[5] = test system: Insulin specific NOD T cell clone PD12-4.29; experiment: Proliferation of insulin-specific NOD T cell clone PD12-4.29; assay type: cell-based, mouse (NOD); conditions: 50 μg/ml peptide, 72 h, 3H-thymidine; no antigen 789 cpm
Procedure: as §1, §2

[6] = test system: NOD mice (spontaneous diabetes); experiment: Reduction of incidence of diabetes in NOD mice; assay type: in vivo, NOD mouse; conditions: NOD mice, 400 μg s.c. weekly, 13 treatments; neurotensin as control; FIG. 10
[7] = test system: B chain (9-23) specific mouse T cell clones; experiment: Antagonism of T cell proliferation assay (FIG. 2); assay type: cell-based, mouse (NOD); conditions: varying amounts of analogue
Procedure: FIG. 2 is a graph showing the proliferative response (measured in cpm) of a NOD mouse T cell clone to a native insulin B chain (9-23) peptide in the presence of varying amounts of representative peptide analogues, in which different residues are substituted with alanine, as indicated.
Peptide analogues of B chain (9-23) containing alanine substitutions at residue 12, 13, 15 or 16 or the doubly substituted peptide at positions 16 and 19 (A^16,19; NBI-6024) were prepared as described in Example 1. T cell antagonism was detected by evaluating the ability of the peptide analogues to inhibit T cell proliferation induced by native B chain (9-23) (SEQ ID NO:2). In this assay, antigen presenting cells were first irradiated and then incubated with the competing peptide analogue and the native B chain (9-23) peptide. T cells were then added to the culture. Various concentrations of candidate peptide analogues were included in cultures which were incubated for a total of 4 days. Following this incubation period, each culture was pulsed with 1 μCi of [^3H]-thymidine for an additional 12-18 hours. Cultures were then harvested on fiberglass filters and counted as above. Mean CPM and standard error of the mean were calculated from data determined in triplicate cultures.

[8] = test system: Insulin B chain (9-23) specific mouse (NOD) T cell clones; experiment: Proliferation of insulin-specific NOD T cell clones (summary over clones); assay type: cell-based; conditions: five separate T cell clones; 50 μg/ml peptide
Procedure: as §1, §2, §3

Row | Substance | Response (cpm) of T cell clone PD6-4.3 [1] [cpm] | Response (cpm) of T cell clone PD12-4.4 [2] [cpm] | Response (cpm) of T cell clone PD12-2.40 [3] [cpm] | Response (cpm) of T cell clone PD12-4.34 [4] [cpm] | Response (cpm) of T cell clone PD12-4.29 [5] [cpm] | Incidence of diabetes (percent of mice diabetic) [6] | Inhibition of T cell proliferation induced by native B chain (9-23) [7] | Proliferation relative to the 9-23 native peptide of insulin B chain [8]
1 | Position 23: insulin B chain (9-23) analogue, native G at position 23 substituted with A | 14304 | 3228 | 75441 | 791 | 18422 | – | – | –
2 | Position 21: insulin B chain (9-23) analogue, native E at position 21 substituted with A | 91 | 7900 | 39087 | 773 | 4904 | – | – | –
3 | Position 13: insulin B chain (9-23) analogue, native E at position 13 substituted with A (SHLVAALYLVCGERG) | 142 | 373 | 519 | 179 | 891 | more pronounced | capable of attenuating the response | either a lack of proliferation or significantly reduced proliferation
4 | Position 12: insulin B chain (9-23) analogue, native V at position 12 substituted with A (SHLAEALYLVCGERG) | 8292 | 1129 | 671 | 194 | 15041 | – | capable of attenuating the response | either a lack of proliferation or significantly reduced proliferation
5 | Position 19: insulin B chain (9-23) analogue, native C at position 19 substituted with A | 7678 | 4295 | 34212 | 689 | 6054 | – | – | –
6 | Position 10: insulin B chain (9-23) analogue, native H at position 10 substituted with A | 12507 | 823 | 1409 | 356 | 15484 | – | – | –
7 | Position 11: insulin B chain (9-23) analogue, native L at position 11 substituted with A | 14148 | 474 | 2594 | 190 | 18416 | – | – | –
8 | Position 15: insulin B chain (9-23) analogue, native L at position 15 substituted with A (SHLVEAAYLVCGERG) | 161 | 675 | 1422 | 191 | 809 | – | – | either a lack of proliferation or significantly reduced proliferation
9 | Position 17: insulin B chain (9-23) analogue, native L at position 17 substituted with A | 553 | 332 | 19321 | 4360 | 1460 | – | – | either a lack of proliferation or significantly reduced proliferation
10 | Position 20: insulin B chain (9-23) analogue, native G at position 20 substituted with A | 2440 | 1323 | 38685 | 466 | 13736 | – | – | –
11 | Position 18: insulin B chain (9-23) analogue, native V at position 18 substituted with A | 234 | 225 | 44785 | 721 | 1193 | – | – | either a lack of proliferation or significantly reduced proliferation
12 | Position 16: insulin B chain (9-23) analogue, native Y at position 16 substituted with A (SHLVEALALVCGERG) | 98 | 779 | 539 | 202 | 636 | – | capable of attenuating the response | either a lack of proliferation or significantly reduced proliferation
13 | Position 22: insulin B chain (9-23) analogue, native R at position 22 substituted with A | 6555 | 1313 | 51721 | 1555 | 12635 | – | – | –
